target: T1, IRAK4 (Homo sapiens, UniProt Q9NWZ3); assay: IRAK4 degradation assay using the HiBiT Method; type: cell-based; conditions: 293T cells expressing HiBiT-tagged IRAK4; 6-hour incubation; Nano-Glo HiBiT Lytic Assay luminescence
T1 construct: knocking-in a HiBiT fusion tag into the C-terminal of the IRAK4 gene in 293T cells; host or cells: 293T cells, knock-in of HiBiT at the endogenous IRAK4 locus
T1 sequence (Q9NWZ3 1-460): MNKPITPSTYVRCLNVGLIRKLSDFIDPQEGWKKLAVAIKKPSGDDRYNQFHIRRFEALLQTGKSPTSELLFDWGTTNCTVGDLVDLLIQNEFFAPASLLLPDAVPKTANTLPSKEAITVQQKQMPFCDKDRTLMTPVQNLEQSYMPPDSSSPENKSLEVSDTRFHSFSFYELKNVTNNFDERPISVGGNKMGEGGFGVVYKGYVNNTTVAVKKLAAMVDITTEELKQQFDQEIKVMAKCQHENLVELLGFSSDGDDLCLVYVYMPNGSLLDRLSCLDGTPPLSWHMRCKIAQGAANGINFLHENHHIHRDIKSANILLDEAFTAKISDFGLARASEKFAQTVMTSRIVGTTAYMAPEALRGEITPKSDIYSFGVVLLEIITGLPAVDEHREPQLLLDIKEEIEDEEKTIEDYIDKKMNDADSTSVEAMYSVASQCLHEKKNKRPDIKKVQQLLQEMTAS
Protocol: Selected compounds were tested in an IRAK4 degradation assay using the HiBiT Method.
Phenol red-free Dulbecco's modified Eagle medium (DMEM) and fetal bovine serum (FBS) were purchased from Gibco (Grand Island, NY, USA). The Nano-Glo© HiBiT Lytic Assay System was purchased from Promega (Madison, WI, USA). Cell culture flasks and 384-well microplates were acquired from VWR (Radnor, PA, USA). The 293T cell line was engineered by knocking-in a HiBiT fusion tag into the C-terminal of the IRAK4 gene in 293T cells (Synthego, Redwood City, CA, USA).
IRAK4 degradation was measured via the quantification of luminescent signals using the Nano-Glo© HiBiT Lytic Assay kit. Test compounds were added to 384-well plates in duplicate using an 11-point half-log dilution series, with the highest dose set at 10 mM. 293T cells expressing HiBiT-tagged IRAK4 were then added into 384-well plates at a cell density of 10,000 cells per well. The plates were kept at 37° C. with 5% CO2 for 6 hours. Cells that were treated only with DMSO served as the negative control; wells that contained only assay media served as the background control. After the 6-hour incubation, Nano-Glo® HiBiT Lytic Assay reagents were added to the cells. Luminescence was acquired using an EnVision® Multilabel Reader (PerkinElmer, Santa Clara, CA, USA).

Row | Structure (SMILES) | DC50 [µM]
1 | CC(C)Oc1cn2cc(C3CCN(CC(=O)N4CCC(c5ccc(NC6CCC(=O)NC6=O)cc5)CC4)CC3)nc2cc1NC(=O)c1cccc(C(F)(F)F)n1 (single isomer, unassigned) [Example 14, N-[2-[1-[2-[4-[4-[[2,6-dioxo-3-piperidyl]amino]phenyl]-1-piperidyl]-2-oxo-ethyl]-4-piperidyl]-6-isopropoxy-imidazo[1,2-a]pyridin-7-yl]-6-(trifluoromethyl)pyridine-2-carboxamide] | 0.01 to 0.1
2 | CC(C)Oc1cc2nc(C3CCN(C(=O)CN4CCC(c5ccc(OC6CCC(=O)NC6=O)cc5)CC4)CC3)cn2cc1NC(=O)c1cccc(C(F)(F)F)n1 (stereo not drawn) [Example 1, N-[2-[1-[2-[4-[4-[(2,6-dioxo-3-piperidyl)oxy]phenyl]-1-piperidyl]acetyl]-4-piperidyl]-7-isopropoxy-imidazo[1,2-a]pyridin-6-yl]-6-(trifluoromethyl) pyridine-2-carboxamide] | 0.1 to 0.5
3 | CC(C)Oc1cc2nc(C3CCN(C(=O)CN4CCC(c5cccc(NC6CCC(=O)NC6=O)c5F)CC4)CC3)cn2cc1NC(=O)c1cccc(C(F)(F)F)n1 (stereo not drawn) [Example 2, N-[2-[1-[2-[4-[3-[(2,6-dioxo-3-piperidyl)amino]-2-fluoro-phenyl]-1-piperidyl]acetyl]-4-piperidyl]-7-isopropoxy-imidazo[1,2-a]pyridin-6-yl]-6-(trifluoromethyl)pyridine-2-carboxamide] | 0.01 to 0.1
4 | CC(C)Oc1cc2nc(C3CCN(C(=O)CN4CCC(c5cccc(NC6CCC(=O)NC6=O)c5)CC4)CC3)cn2cc1NC(=O)c1cccc(C(F)(F)F)n1 (stereo not drawn) [Example 3, N-[2-[1-[2-[4-[3-[(2,6-dioxo-3-piperidyl)amino]phenyl]-1-piperidyl]acetyl]-4-piperidyl]-7-isopropoxy-imidazo[1,2-a]pyridin-6-yl]-6-(trifluoromethyl)pyridine-2-carboxamide] | 0.1 to 0.5
5 | CC(C)Oc1cc2nc(C3CCN(C(=O)CN4CCN(c5ccc(C6CCC(=O)NC6=O)cc5)CC4)CC3)cn2cc1NC(=O)c1cccc(C(F)(F)F)n1 (stereo not drawn) [Example 5, N-[2-[1-[2-[4-[4-(2,6-dioxo-3-piperidyl)phenyl]piperazin-1-yl]acetyl]-4-piperidyl]-7-isopropoxy-imidazo[1,2-a]pyridin-6-yl]-6-(trifluoromethyl)pyridine-2-carboxamide] | 0.1 to 0.5
6 | CC(C)Oc1cc2nc(C3CCN(CC(=O)N4CCC(c5ccc(NC6CCC(=O)NC6=O)cn5)CC4)CC3)cn2cc1NC(=O)c1cccc(C(F)(F)F)n1 (stereo not drawn) [Example 11, N-[2-[1-[2-[4-[5-[(2,6-dioxo-3-piperidyl)amino]-2-pyridyl]-1-piperidyl]-2-oxo-ethyl]-4-piperidyl]-7-isopropoxy-imidazo[1,2-a]pyridin-6-yl]-6-(trifluoromethyl)pyridine-2-carboxamide] | 0.1 to 0.5
7 | CC(C)Oc1cc2nc(C3CCN(CC(=O)N4CCC(c5ccc(C6(F)CCC(=O)NC6=O)cc5)CC4)CC3)cn2cc1NC(=O)c1cccc(C(F)(F)F)n1 (stereo not drawn) [Example 12, N-[2-[1-[2-[4-[4-(3-fluoro-2,6-dioxo-3-piperidyl)phenyl]-1-piperidyl]-2-oxo-ethyl]-4-piperidyl]-7-isopropoxy-imidazo[1,2-a]pyridin-6-yl]-6-(trifluoromethyl)pyridine-2-carboxamide] | 0.1 to 0.5
8 | CC(C)Oc1cc2nc(C3CCN(CC(=O)N4CCN(CCCc5ccc(NC6CCC(=O)NC6=O)cc5)CC4)CC3)cn2cc1NC(=O)c1cccc(C(F)(F)F)n1 (stereo not drawn) [Example 16, N-[2-[1-[2-[4-[3-[4-[(2,6-dioxo-3-piperidyl)amino]phenyl]propyl]piperazin-1-yl]-2-oxo-ethyl]-4-piperidyl]-7-isopropoxy-imidazo[1,2-a]pyridin-6-yl]-6-(trifluoromethyl) pyridine-2-carboxamide] | 0.1 to 0.5

Continued, values first:

Row | DC50 [µM] | Structure (SMILES)
9 | 0.01 to 0.1 | CC(C)Oc1cn2cc(C3CCN(CC(=O)N4CCC(c5ccc(NC6CCC(=O)NC6=O)cc5)CC4)CC3)nc2cc1NC(=O)c1cccc(C(F)(F)F)n1 (single isomer, unassigned) [Example 15, N-[2-[1-[2-[4-[4-[[2,6-dioxo-3-piperidyl]amino]phenyl]-1-piperidyl]-2-oxo-ethyl]-4-piperidyl]-6-isopropoxy-imidazo[1,2-a]pyridin-7-yl]-6-(trifluoromethyl)pyridine-2-carboxamide]
10 | 0.1 to 0.5 | CC(C)Oc1cc2nc(C3CCN(C(=O)CN4CCC(c5ccc(C6CCC(=O)NC6=O)cc5)CC4)CC3)cn2cc1NC(=O)c1cccc(C(F)(F)F)n1 (stereo not drawn) [Example 4, N-[2-[1-[2-[4-[4-(2,6-dioxo-3-piperidyl)phenyl]-1-piperidyl]acetyl]-4-piperidyl]-7-isopropoxy-imidazo[1,2-a]pyridin-6-yl]-6-(trifluoromethyl)pyridine-2-carboxamide]
11 | 0.1 to 0.5 | CC(C)Oc1cc2nc(C3CCN(C(=O)CN4CCN(c5ccc(OC6CCC(=O)NC6=O)cc5)CC4)CC3)cn2cc1NC(=O)c1cccc(C(F)(F)F)n1 (stereo not drawn) [Example 6, N-[2-[1-[2-[4-[4-[(2,6-dioxo-3-piperidyl)oxy]phenyl]piperazin-1-yl]acetyl]-4-piperidyl]-7-isopropoxy-imidazo[1,2-a]pyridin-6-yl]-6-(trifluoromethyl)pyridine-2-carboxamide]
12 | 0.1 to 0.5 | CC(C)Oc1cc2nc(C3CCN(C(=O)CN4CCC(c5ccc(NC6CCC(=O)NC6=O)cc5F)CC4)CC3)cn2cc1NC(=O)c1cccc(C(F)(F)F)n1 (stereo not drawn) [Example 7, N-[2-[1-[2-[4-[4-[(2,6-dioxo-3-piperidyl)amino]-2-fluoro-phenyl]-1-piperidyl]acetyl]-4-piperidyl]-7-isopropoxy-imidazo[1,2-a]pyridin-6-yl]-6-(trifluoromethyl)pyridine-2-carboxamide]
13 | 0.01 to 0.1 | CC(C)Oc1cc2nc(C3CCN(C(=O)CCN4CCC(c5ccc(NC6CCC(=O)NC6=O)cc5F)CC4)CC3)cn2cc1NC(=O)c1cccc(C(F)(F)F)n1 (stereo not drawn) [Example 8, N-[2-[1-[3-[4-[4-[(2,6-dioxo-3-piperidyl)amino]-2-fluoro-phenyl]-1-piperidyl]propanoyl]-4-piperidyl]-7-isopropoxy-imidazo[1,2-a]pyridin-6-yl]-6-(trifluoromethyl)pyridine-2-carboxamide]
14 | 0.01 to 0.1 | CC(C)Oc1cc2nc(C3CCN(C(=O)CN4CCC(c5ccc(NC6CCC(=O)NC6=O)cc5)CC4)CC3)cn2cc1NC(=O)c1cccc(C(F)(F)F)n1 (stereo not drawn) [Example 9, N-[2-[1-[2-[4-[4-[(2,6-dioxo-3-piperidyl)amino]phenyl]-1-piperidyl]acetyl]-4-piperidyl]-7-isopropoxy-imidazo[1,2-a]pyridin-6-yl]-6-(trifluoromethyl)pyridine-2-carboxamide]
15 | 0.1 to 0.5 | CC(C)Oc1cc2nc(C3CCN(C(=O)CN4CCN(c5ccc(NC6CCC(=O)NC6=O)cc5)CC4)CC3)cn2cc1NC(=O)c1cccc(C(F)(F)F)n1 (stereo not drawn) [Example 10, N-[2-[1-[2-[4-[4-[(2,6-dioxo-3-piperidyl)amino]phenyl]piperazin-1-yl]acetyl]-4-piperidyl]-7-isopropoxy-imidazo[1,2-a]pyridin-6-yl]-6-(trifluoromethyl)pyridine-2-carboxamide]
16 | 0.1 to 0.5 | CC(C)Oc1cc2nc(C3CCN(CC(=O)N4CCC(c5cccc(NC6CCC(=O)NC6=O)c5F)CC4)CC3)cn2cc1NC(=O)c1cccc(C(F)(F)F)n1 (stereo not drawn) [Example 13, N-[2-[1-[2-[4-[3-[(2,6-dioxo-3-piperidyl)amino]-2-fluoro-phenyl]-1-piperidyl]-2-oxo-ethyl]-4-piperidyl]-7-isopropoxy-imidazo[1,2-a]pyridin-6-yl]-6-(trifluoromethyl)pyridine-2-carboxamide]
17 | 0.01 to 0.1 | CC(C)Oc1cc2nc(C3CCN(CC(=O)N4CCC(c5cccc(NC6CCC(=O)NC6=O)c5)CC4)CC3)cn2cc1NC(=O)c1cccc(C(F)(F)F)n1 (stereo not drawn) [Example 17, N-[2-[1-[2-[4-[3-[(2,6-dioxo-3-piperidyl)amino]phenyl]-1-piperidyl]-2-oxo-ethyl]-4-piperidyl]-7-isopropoxy-imidazo[1,2-a]pyridin-6-yl]-6-(trifluoromethyl)pyridine-2-carboxamide]
18 | 0.01 to 0.1 | CC(C)Oc1cc2nc(C3CCN(CC(=O)N4CCN(c5cc6c(cc5F)c(N5CCC(=O)NC5=O)nn6C)CC4)CC3)cn2cc1NC(=O)c1cccc(C(F)(F)F)n1 [Example 18, N-(2-(1-(2-(4-(3-(2,4-dioxotetrahydropyrimidin-1(2H)-yl)-5-fluoro-1-methyl-1H-indazol-6-yl)piperazin-1-yl)-2-oxoethyl)piperidin-4-yl)-7-isopropoxyimidazo[1,2-a]pyridin-6-yl)-6-(trifluoromethyl)picolinamide]

From patent US20250018046A1, “COMPOUNDS FOR TARGETING DEGRADATION OF IRAK4 PROTEINS” (BIOGEN MA INC, priority 2021, published 2025)
